Results published in article PMC4222603, “Dual inhibition of HIV-1 replication by integrase-LEDGF allosteric inhibitors is predominant at the post-integration stage” (Retrovirology, 2013).
Read-outs that look alike come from different tables or passages of the source.

Legend:
HIV-1 NL4-3 = assay: Antiviral assay in MT-4 cells, multiple-round infection, CellTiter-Glo; type: cell-based
Procedure: MT-4 cells growing exponentially at the density of 10^6/mL were infected with HIV-1 strain NL4-3 at a MOI (multiplicity of infection) of 0.001 for 2 h. The cells were washed with PBS and aliquoted, using 100 μL fresh complete RPMI, into 96-well white plates (Corning) in the presence of different concentrations of compounds.

[1] = tested on: NL4-3 RT M41L, D67N, K103N, M184V, L210W, T215Y; assay: Antiviral assay on Multi-drug (NRTI + NNRTI) resistant virus; type: cell-based, HIV-1; details: ratio EC50 resistant virus / wt virus; NRTI + NNRTI mutations
[2] = tested on: NL4-3 Protease L10R, M46I, L63P, V82T, I84V; assay: Antiviral assay on PI-resistant virus; type: cell-based, HIV-1; details: ratio EC50 resistant virus / wt virus
[3] = tested on: VSV-G-pseudotyped NL4-3Δenv-luc; assay: microbe, parasite or virus in culture; type: cell-based, HIV-1; details: for EC50: Human immunodeficiency virus 1, NL43, MT4, read-out: NL4-3 EC50 Single-round
[4] = tested on: NL4-3 RT M41L, D67N, T69N, K70R, T215F, K219E; assay: Antiviral assay on NRTI-resistant virus; type: cell-based, HIV-1; details: ratio EC50 resistant virus / wt virus
NL4-3 RT K103N, Y181C = assay: Antiviral assay on NNRTI-resistant virus; type: cell-based, HIV-1; details: ratio EC50 resistant virus / wt virus
[5] = tested on: NL4-3 Integrase G140S, Q148H; assay: Antiviral assay on INSTI-resistant virus; type: cell-based, HIV-1; details: ratio EC50 resistant virus / wt virus
HxB2 HIV-1 = assay: Antiviral assay in MT4 cells infected with HxB2; type: cell-based; details: Human immunodeficiency virus 1, HXB2, MT4; Table 1; read-out: HxB2 EC50 (MT4 assays)
IN-LEDGF/p75 interaction = IN-LEDGF/p75 interaction (Human immunodeficiency virus type 1 group M subtype B, UniProt P12497); assay: biochemical; details: IN-LEDGF IC50, Table 1; HTRF, full length proteins
Procedure: IN-LEDGF HTRF® assay was performed in 384-well low volume black polystyrene plates (Corning) using IN-LEDGF assay buffer (25 mM Tris–HCl pH 7.4, 150 mM NaCl, 2 mM MgCl2, 0.4 M KF, 0.1% Igepal CA-630, 0.1% bovine serum albumin, 1 mM DTT). […] The HTRF ratio was converted to % inhibition and analyzed by fitting a sigmoidal dose–response equation with Hill slope to determine the IC50 of the compound.

[6] = target: T1, IN-CCD/LEDGF-IBD interaction (Human immunodeficiency virus type 1 group M subtype B, UniProt P12497, F1332K); assay: HTRF-based CCD-IBD interaction assay; type: binding, HIV-1; details: Table 1
T1 construct: cloning the integrase region (residues 50 to 202, encoding the catalytic core domain); made in house
Excerpt: All HTRF® conjugated monoclonal antibodies were purchased from Cisbio Bioassays.

in vitro = type: cell-based; details: human
Procedure: Growth inhibition was monitored in a proliferating human T-cell line (MT-4) with different concentrations of compounds. ATP levels were quantified using the CellTiter-Glo® luminescent reagent (Promega) to measure the ability of a compound to inhibit cell growth, an indication of the compound’s cytotoxicity. Cytotoxicity was evaluated at either day 2 or day 5.

[7] = target: T2, IN strand transfer activity (Human immunodeficiency virus type 1 group M subtype B, UniProt P12497); assay: IN strand transfer ELISA assay; type: biochemical, HIV-1; details: for IC50: Table 1, ELISA, read-out: IN ST IC50; for IN ST plateau (%): inhibition plateau, concentrations up to 100 μM
T2 construct: loaded on a Superdex 200 16/600 PG column (for full length IN); made in house
Procedure: IN strand transfer ELISA assay has been adapted from. […] 16 μL of IN mixture (20 mM HEPES pH 7.5, 10 mM MgCl2, 1 mM DTT, 0.50 μM His6-IN) was added. […] The reaction was stopped by addition of 60 μL stop mixture (20 mM Tris–HCl pH 7.6, 0.4 M NaCl, 10 mM Na2EDTA, 0.1 mg/mL salmon sperm DNA) and the volume transferred to Reacti-Bind high-binding capacity streptavidin-coated white plates (Thermo Scientific Pierce). After 1 h incubation at room temperature under gentle shaking, integrase and unjoined DNA were removed by three washes with 200 μL wash solution 1 (30 mM NaOH, 0.2 M NaCl, 1 mM Na2EDTA). 100 μL of 2000-fold diluted HRP-conjugated anti-DIG Fab (Roche Applied Science) was added and the plate was incubated for 1 h at 37°C. Unbound antibody was removed with wash solution 2 (PBS pH 7.4, 0.05% Tween-20, 0.1% bovine serum albumin), 100 μL of SuperSignal Femto ELISA substrate (Thermo Scientific Pierce) was added and chemiluminescence was immediately read in a PHERAstar Plus with LUM-plus module. The signal, converted to % inhibition, was analyzed by fitting a sigmoidal dose–response curve to determine IC50 and the inhibition plateau.

[8] = tested on: HIV-1 LAV virions produced by HeLa-LAV cells; assay: Virions produced by compound-treated HeLa-LAV cells: p24 and infectivity; type: cell-based; details: luciferase assay in TZM cells
[9] = tested on: NL4-3 IN T174I mutant virus; type: cell-based, HIV-1
HIV-1 NL4-3 wt = type: cell-based
[10] = target: His6-IN (HIV-1 NL4-3 integrase wild type, from pINSD.His) (HIV-1 NL4-3); assay: SEC; Superdex 200 10/300 GL, 0.4 mL/min, 50 mM HEPES pH 7.5, 1 M NaCl, 7 mM CHAPS, 5 mM MgCl2, 10 mM DTT, 10% glycerol, room temperature; His6-IN wt 21 uM or His6-IN A128T 40 uM incubated for 10 min with 100 uM BI-D or Mut101 before injection
[11] = target: His6-IN (HIV-1 NL4-3 integrase wild type, from pINSD.His) (HIV-1 NL4-3); assay: SEC; Superdex 200 10/300 GL, 0.4 mL/min, 50 mM HEPES pH 7.5, 1 M NaCl, 7 mM CHAPS, 5 mM MgCl2, 10 mM DTT, 10% glycerol, room temperature; His6-IN wt 21 uM or His6-IN A128T 40 uM; no compound
[12] = Human immunodeficiency virus 1, NL43, MT4, Table 3, mean of two independent experiments, read-out: EC50 NL4-3 WT
[13] = Human immunodeficiency virus 1, NL43, MT4 cells, mean of six independent experiments, read-out: NL4-3 EC50 Multiple-round
[14] = Human immunodeficiency virus 1, NL43, MT4, Table 1, read-out: NL4-3 EC50 (MT4 assays)
[15] = HEK293T transfection, MT4 infection, CellTiter-Glo

Row | Compound | EC50 [3] | EC50 (HIV-1 NL4-3; [13]) | SR/MR ratio [3] | EC50 (HxB2 HIV-1) | EC50 (HIV-1 NL4-3; [14]) | IC50 (IN-LEDGF/p75 interaction) | IC50 [6] | CC50 (in vitro) | other results
1 | Cc1cn([C@H]2C[C@H](N=[N+]=[N-])[C@@H](CO)O2)c(=O)[nH]c1=O [AZT, Zidovudine] | 2.5 ± 0.3 nM |  |  |  |  |  |  |  | EC50 (HIV-1 NL4-3; [12]): 140 nM; EC50 fold change Multi-drug [1]: 10; EC50 fold change PI [2]: 1; EC50 fold change NRTIs [4]: 88; EC50 fold change NNRTIs (NL4-3 RT K103N, Y181C): 0.1; EC50 fold change INSTIs [5]: 0.4
2 | O=C1Nc2ccc(Cl)cc2[C@@](C#CC2CC2)(C(F)(F)F)O1 [EFV, Efavirenz, reference compound] | 1.2 ± 0.4 nM | 1.3 ± 0.2 nM | 0.9 |  |  |  |  |  | 
3 | COc1cc2c(cc1Cc1cccc(Cl)c1F)c(=O)c(C(=O)O)cn2[C@H](CO)C(C)C [EVG, Elvitegravir] | 0.42 ± 0.05 nM | 0.86 ± 0.4 nM | 0.5 |  |  |  |  |  | EC50 (HIV-1 NL4-3; [12]): 3 nM; EC50 fold change Multi-drug [1]: 0.3; EC50 fold change PI [2]: 1; EC50 fold change NRTIs [4]: 0.3; EC50 fold change NNRTIs (NL4-3 RT K103N, Y181C): 1; EC50 fold change INSTIs [5]: 2036
4 | CC(C)(C)NC(=O)[C@@H]1CN(Cc2cccnc2)CCN1C[C@@H](O)C[C@@H](Cc1ccccc1)C(=O)N[C@H]1c2ccccc2C[C@H]1O [IDV, Indinavir] |  | 36 nM |  |  |  |  |  |  | EC50 (HIV-1 NL4-3; [12]): 32 nM; EC50 fold change Multi-drug [1]: 1; EC50 fold change PI [2]: 9; NL4-3 EC50 Single-round [3]: Inactive; EC50 fold change NRTIs [4]: 1; EC50 fold change NNRTIs (NL4-3 RT K103N, Y181C): 1; EC50 fold change INSTIs [5]: 1
5 | CC(C)(C)OC(C(=O)O)c1c(-c2ccc3c(c2)CCCO3)ccc2ncccc12 (stereo not shown) [Mut029, 2-(tert-butoxy)-2-[6-(3,4-dihydro-2H-1-benzopyran-6-yl)quinolin-5-yl]acetic acid] | 30000 ± 4000 nM | 3800 ± 1600 nM | 8 | 3800 nM | 3800 nM | 2.5 µM | 1.7 µM | > 50 µM | 
6 | CC(C)(C)OC(C(=O)O)c1c(-c2ccc3c(c2)CCCO3)ccc2ccccc12 (stereo not shown) [Mut047, 2-(tert-butoxy)-2-[2-(3,4-dihydro-2H-1-benzopyran-6-yl)naphthalene-1-yl]acetic acid] | 37000 ± 2000 nM | 16000 ± 7000 nM | 2.3 | 19000 nM | 16000 nM | 7.9 µM | 3.8 µM | > 50 µM | IC50 [7]: 880 nM; IN ST plateau (%) [7]: 70%
7 | Cc1nc2ccccc2c(C2CCCCC2)c1C(OC(C)(C)C)C(=O)O (stereo not shown) [Mut049, 2-(tert-butoxy)-2-(4-cyclohexyl-2-methylquinolin-3-yl)acetic acid] | 41000 ± 2000 nM | 2000 ± 100 nM | 21 | 750 nM | 2000 nM | 3.5 µM | 18 µM | > 50 µM | IC50 [7]: 180 nM; IN ST plateau (%) [7]: 56%
8 | CC(C)(C)OC(C(=O)O)C1=C(c2ccc3c(c2)CCCO3)c2ccccc2OC1 (stereo not shown) [Mut062, 2-(tert-butoxy)-2-[4-(3,4-dihydro-2H-1-benzopyran-6-yl)-2H-chromen-3-yl]acetic acid] |  | 3300 ± 1500 nM | >25 | 1300 nM | 3300 nM | 3.1 µM | 2.7 µM | > 50 µM | IC50 [7]: 540 nM; IN ST plateau (%) [7]: 73%; Inhibition in single-round infection assay [3]: 30% @50
9 | CC(C)(C)OC(C(=O)O)c1ccc(Oc2ccccc2)cc1-c1ccc2c(c1)CCCO2 (stereo not shown) [Mut063, 2-(tert-butoxy)-2-[2-(3,4-dihydro-2H-1-benzopyran-6-yl)-4-phenoxyphenyl]acetic acid] |  |  |  |  | > 50000 nM | > 100 µM | > 100 µM | > 50 µM | IC50 [7]: > 100000 nM; Infectivity of virions from treated HeLa-LAV cells [8]: no infectivity defect
10 | Cc1nc2c(c(-c3ccccc3)c1C(OC(C)(C)C)C(=O)O)CCCC2 (stereo not shown) [Mut075, 2-(tert-butoxy)-2-(2-methyl-4-phenyl-5,6,7,8-tetrahydro-quinolin-3-yl)acetic acid] |  | 3400 ± 1000 nM | >25 | 1000 nM | 3400 nM | 4 µM | 14 µM | > 50 µM | Inhibition in single-round infection assay [3]: 23% @50
11 | Cc1ccnc2c1NC(=O)c1cccnc1N2C1CC1 [NVP, Nevirapine] | 41 ± 8 nM | 86 ± 12 nM |  |  |  |  |  |  | EC50 (HIV-1 NL4-3; [12]): 160 nM; EC50 fold change Multi-drug [1]: 14; EC50 fold change PI [2]: 1; EC50 fold change NRTIs [4]: 3; EC50 fold change NNRTIs (NL4-3 RT K103N, Y181C): 287; EC50 fold change INSTIs [5]: 1
12 | Cc1nnc(C(=O)NC(C)(C)c2nc(C(=O)NCc3ccc(F)cc3)c(O)c(=O)n2C)o1 [RAL, Raltegravir, reference compound] | 2.5 ± 0.3 nM |  |  |  |  |  |  |  | Infectivity of NL4-3 IN T174I virus produced in presence of compound [9, 15]: no effect; EC50 (HIV-1 NL4-3; Human immunodeficiency virus 1, NL43, MT4, read-out: EC50 NL4-3 WT): 7 nM; EC50 (HIV-1 NL4-3; Human immunodeficiency virus 1, NL43, MT4, read-out: NL4-3 EC50 Multiple-round): 2.4 ± 0.6 nM; Infectivity of NL4-3 wt virus produced in presence of compound (HIV-1 NL4-3 wt; [15]): no effect; Infectivity of virions from treated HeLa-LAV cells [8]: no infectivity defect
13 | CC(C)(C)NC(=O)[C@@H]1C[C@@H]2CCCC[C@@H]2CN1C[C@@H](O)[C@H](Cc1ccccc1)NC(=O)[C@H](CC(N)=O)NC(=O)c1ccc2ccccc2n1 [SQV, Saquinavir, reference compound] |  | 13 nM |  |  |  |  |  |  | Infectivity of NL4-3 IN T174I virus produced in presence of compound [9]: sensitive to and inactivated; NL4-3 EC50 Single-round [3]: Inactive; Infectivity of NL4-3 wt virus produced in presence of compound (HIV-1 NL4-3 wt): sensitive to and inactivated; Infectivity of virions from treated HeLa-LAV cells [8]: strong virus infectivity defects
14 | His6-IN (HIV-1 NL4-3 integrase wild type, from pINSD.His) (enzyme) |  |  |  |  |  |  |  |  | stoichiometry N [10]: 4; stoichiometry N [11]: 2
